From ChEMBL document CHEMBL4649984, “CBP30, a selective CBP/p300 bromodomain inhibitor, suppresses human Th17 responses” (Proc Natl Acad Sci U S A, 2015)
pIC50: −log10 of the molar value. Several values for one entry are separate records, joined by “and”; a condition that tells them apart may be missing. Identical values can stand only once.

Experiments:
[1] = molecular target: PH-interacting protein (Homo sapiens) (UniProt Q8WWQ0); conditions: Compound concentration 10.0 uM, Protein concentration 2.0 uM
[2] = molecular target: Protein polybromo-1 (Homo sapiens) (UniProt Q86U86); conditions: Compound concentration 10.0 uM, Protein concentration 2.0 uM
Chain of Protein polybromo-1 (Homo sapiens) (Q86U86 whole entry): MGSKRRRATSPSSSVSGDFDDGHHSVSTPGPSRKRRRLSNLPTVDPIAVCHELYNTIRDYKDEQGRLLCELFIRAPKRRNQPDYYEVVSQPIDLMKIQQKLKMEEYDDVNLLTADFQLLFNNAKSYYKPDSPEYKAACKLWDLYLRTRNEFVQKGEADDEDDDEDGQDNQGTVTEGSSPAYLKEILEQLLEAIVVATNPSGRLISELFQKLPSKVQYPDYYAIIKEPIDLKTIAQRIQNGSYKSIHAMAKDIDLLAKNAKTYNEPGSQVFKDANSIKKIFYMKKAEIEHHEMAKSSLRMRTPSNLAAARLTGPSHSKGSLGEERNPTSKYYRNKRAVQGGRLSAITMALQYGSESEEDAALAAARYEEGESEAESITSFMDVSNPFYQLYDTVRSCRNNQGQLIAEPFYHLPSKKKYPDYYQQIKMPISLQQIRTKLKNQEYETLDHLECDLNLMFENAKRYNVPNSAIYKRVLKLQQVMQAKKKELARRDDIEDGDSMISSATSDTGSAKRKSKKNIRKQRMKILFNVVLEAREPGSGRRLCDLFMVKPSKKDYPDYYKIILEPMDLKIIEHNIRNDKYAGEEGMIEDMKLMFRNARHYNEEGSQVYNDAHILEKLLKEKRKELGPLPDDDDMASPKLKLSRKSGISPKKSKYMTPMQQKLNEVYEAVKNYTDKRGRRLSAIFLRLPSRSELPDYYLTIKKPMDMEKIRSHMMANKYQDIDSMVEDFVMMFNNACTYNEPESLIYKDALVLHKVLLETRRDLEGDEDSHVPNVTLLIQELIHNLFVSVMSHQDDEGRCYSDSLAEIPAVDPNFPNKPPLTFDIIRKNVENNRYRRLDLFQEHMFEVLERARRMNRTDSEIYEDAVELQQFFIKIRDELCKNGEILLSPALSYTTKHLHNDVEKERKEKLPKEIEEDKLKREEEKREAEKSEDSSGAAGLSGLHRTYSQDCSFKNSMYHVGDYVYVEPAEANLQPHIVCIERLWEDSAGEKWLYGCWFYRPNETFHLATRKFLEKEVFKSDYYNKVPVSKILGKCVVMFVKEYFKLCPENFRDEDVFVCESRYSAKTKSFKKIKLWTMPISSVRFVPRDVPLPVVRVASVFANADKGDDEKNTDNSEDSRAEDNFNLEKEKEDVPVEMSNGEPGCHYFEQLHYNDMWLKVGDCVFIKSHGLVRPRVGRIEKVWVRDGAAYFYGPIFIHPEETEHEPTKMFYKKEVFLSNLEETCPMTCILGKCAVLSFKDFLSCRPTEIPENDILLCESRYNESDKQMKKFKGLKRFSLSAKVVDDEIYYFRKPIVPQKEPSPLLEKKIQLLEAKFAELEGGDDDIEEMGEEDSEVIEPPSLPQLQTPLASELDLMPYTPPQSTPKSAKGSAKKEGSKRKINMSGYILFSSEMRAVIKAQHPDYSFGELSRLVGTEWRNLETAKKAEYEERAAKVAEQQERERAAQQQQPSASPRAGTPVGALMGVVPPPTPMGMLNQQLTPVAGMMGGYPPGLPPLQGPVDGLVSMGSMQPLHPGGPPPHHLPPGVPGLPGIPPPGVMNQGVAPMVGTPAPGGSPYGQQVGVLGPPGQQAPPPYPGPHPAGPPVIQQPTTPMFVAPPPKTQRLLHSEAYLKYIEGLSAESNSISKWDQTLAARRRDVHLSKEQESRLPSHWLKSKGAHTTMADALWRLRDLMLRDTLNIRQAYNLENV

[3] = molecular target: T1, Bromodomain-containing protein 4 (Homo sapiens, UniProt O60885); conditions: Compound concentration 10.0 uM, Protein concentration 2.0 uM
[4] = molecular target: Bromodomain testis-specific protein (Homo sapiens) (UniProt Q58F21); conditions: Compound concentration 10.0 uM, Protein concentration 2.0 uM
[5] = molecular target: Chromatin remodeling regulator CECR2 (Homo sapiens) (UniProt Q9BXF3); conditions: Compound concentration 10.0 uM, Protein concentration 2.0 uM
Chain of Chromatin remodeling regulator CECR2 (Homo sapiens) (Q9BXF3 whole entry, looked up): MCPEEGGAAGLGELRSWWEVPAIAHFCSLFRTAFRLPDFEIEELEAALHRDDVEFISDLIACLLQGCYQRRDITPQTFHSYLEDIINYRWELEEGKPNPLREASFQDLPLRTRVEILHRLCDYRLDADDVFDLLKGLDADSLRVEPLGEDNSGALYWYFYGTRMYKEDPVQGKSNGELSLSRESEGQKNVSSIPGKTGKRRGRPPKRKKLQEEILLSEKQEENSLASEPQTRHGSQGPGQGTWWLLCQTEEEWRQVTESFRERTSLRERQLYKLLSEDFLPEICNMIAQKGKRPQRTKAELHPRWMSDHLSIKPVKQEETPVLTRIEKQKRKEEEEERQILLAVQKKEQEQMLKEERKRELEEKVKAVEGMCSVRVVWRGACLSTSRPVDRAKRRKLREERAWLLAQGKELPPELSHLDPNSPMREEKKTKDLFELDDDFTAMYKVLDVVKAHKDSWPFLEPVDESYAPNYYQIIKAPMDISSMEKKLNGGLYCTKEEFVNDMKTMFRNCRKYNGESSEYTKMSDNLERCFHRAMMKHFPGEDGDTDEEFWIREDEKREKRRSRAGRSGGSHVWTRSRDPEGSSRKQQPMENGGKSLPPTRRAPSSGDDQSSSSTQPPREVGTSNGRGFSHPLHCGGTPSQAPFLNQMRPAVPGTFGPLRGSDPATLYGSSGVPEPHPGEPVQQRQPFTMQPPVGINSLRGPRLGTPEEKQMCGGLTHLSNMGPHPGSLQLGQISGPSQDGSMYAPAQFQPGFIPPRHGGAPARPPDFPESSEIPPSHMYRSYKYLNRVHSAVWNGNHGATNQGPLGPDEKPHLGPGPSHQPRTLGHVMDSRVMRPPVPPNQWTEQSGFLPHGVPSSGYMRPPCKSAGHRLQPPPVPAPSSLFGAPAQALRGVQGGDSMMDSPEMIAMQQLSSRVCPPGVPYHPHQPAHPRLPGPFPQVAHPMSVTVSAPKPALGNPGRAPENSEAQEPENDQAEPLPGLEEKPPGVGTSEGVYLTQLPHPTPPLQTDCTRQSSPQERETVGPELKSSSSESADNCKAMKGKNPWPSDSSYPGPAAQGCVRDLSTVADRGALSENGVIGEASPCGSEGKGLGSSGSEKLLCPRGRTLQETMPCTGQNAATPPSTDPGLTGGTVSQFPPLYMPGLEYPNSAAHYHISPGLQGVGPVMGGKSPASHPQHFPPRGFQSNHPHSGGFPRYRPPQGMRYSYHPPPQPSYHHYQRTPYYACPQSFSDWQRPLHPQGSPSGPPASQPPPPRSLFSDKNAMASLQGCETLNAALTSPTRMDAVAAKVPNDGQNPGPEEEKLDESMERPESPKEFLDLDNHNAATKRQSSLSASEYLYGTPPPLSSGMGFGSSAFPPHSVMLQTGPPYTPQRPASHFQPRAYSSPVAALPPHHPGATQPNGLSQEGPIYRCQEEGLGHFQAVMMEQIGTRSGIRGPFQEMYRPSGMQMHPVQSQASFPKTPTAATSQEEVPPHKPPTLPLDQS

[6] = molecular target: Protein polybromo-1 (Homo sapiens) (UniProt Q86U86); test: Thermal Shift Assay. Domain start/stop: H23-D159; conditions: Compound concentration 10.0 uM, Protein concentration 2.0 uM
[7] = molecular target: Histone acetyltransferase KAT2A (Homo sapiens) (UniProt Q92830); conditions: Compound concentration 10.0 uM, Protein concentration 2.0 uM
[8] = molecular target: ATPase family AAA domain-containing protein 2 (Homo sapiens) (UniProt Q6PL18); conditions: Compound concentration 10.0 uM, Protein concentration 2.0 uM
[9] = molecular target: Bromodomain-containing protein 2 (Homo sapiens) (UniProt P25440); conditions: Compound concentration 10.0 uM, Protein concentration 2.0 uM
[10] = molecular target: ATPase family AAA domain-containing protein 2 (Homo sapiens) (UniProt Q6PL18); conditions: Compound concentration 25.0 uM, Protein concentration 200.0 uM
Description: Alphascreen assay. Domain start/stop: Q981-R1108

[11] = molecular target: CREB-binding protein (Homo sapiens) (UniProt Q92793); conditions: Compound concentration 10.0 uM, Protein concentration 2.0 uM
[12] = molecular target: ATPase family AAA domain-containing protein 2B (Homo sapiens) (UniProt Q9ULI0); conditions: Compound concentration 10.0 uM, Protein concentration 2.0 uM
[13] = molecular target: Protein polybromo-1 (Homo sapiens) (UniProt Q86U86); test: Thermal Shift Assay. Domain start/stop: R487-D598; conditions: Compound concentration 10.0 uM, Protein concentration 2.0 uM
[14] = molecular target: Protein polybromo-1 (Homo sapiens) (UniProt Q86U86); conditions: Compound concentration 10.0 uM, Protein concentration 2.0 uM; remark: listed apart in the source
[15] = molecular target: Bromodomain and WD repeat-containing protein 3 (Homo sapiens) (UniProt Q6RI45); conditions: Compound concentration 10.0 uM, Protein concentration 2.0 uM
[16] = molecular target: Bromodomain-containing protein 9 (Homo sapiens) (UniProt Q9H8M2); conditions: Compound concentration 10.0 uM, Protein concentration 2.0 uM
[17] = molecular target: Transcription initiation factor TFIID subunit 1 (Homo sapiens) (UniProt P21675); conditions: Compound concentration 10.0 uM, Protein concentration 2.0 uM
Chain of Transcription initiation factor TFIID subunit 1 (Homo sapiens) (P21675 whole entry): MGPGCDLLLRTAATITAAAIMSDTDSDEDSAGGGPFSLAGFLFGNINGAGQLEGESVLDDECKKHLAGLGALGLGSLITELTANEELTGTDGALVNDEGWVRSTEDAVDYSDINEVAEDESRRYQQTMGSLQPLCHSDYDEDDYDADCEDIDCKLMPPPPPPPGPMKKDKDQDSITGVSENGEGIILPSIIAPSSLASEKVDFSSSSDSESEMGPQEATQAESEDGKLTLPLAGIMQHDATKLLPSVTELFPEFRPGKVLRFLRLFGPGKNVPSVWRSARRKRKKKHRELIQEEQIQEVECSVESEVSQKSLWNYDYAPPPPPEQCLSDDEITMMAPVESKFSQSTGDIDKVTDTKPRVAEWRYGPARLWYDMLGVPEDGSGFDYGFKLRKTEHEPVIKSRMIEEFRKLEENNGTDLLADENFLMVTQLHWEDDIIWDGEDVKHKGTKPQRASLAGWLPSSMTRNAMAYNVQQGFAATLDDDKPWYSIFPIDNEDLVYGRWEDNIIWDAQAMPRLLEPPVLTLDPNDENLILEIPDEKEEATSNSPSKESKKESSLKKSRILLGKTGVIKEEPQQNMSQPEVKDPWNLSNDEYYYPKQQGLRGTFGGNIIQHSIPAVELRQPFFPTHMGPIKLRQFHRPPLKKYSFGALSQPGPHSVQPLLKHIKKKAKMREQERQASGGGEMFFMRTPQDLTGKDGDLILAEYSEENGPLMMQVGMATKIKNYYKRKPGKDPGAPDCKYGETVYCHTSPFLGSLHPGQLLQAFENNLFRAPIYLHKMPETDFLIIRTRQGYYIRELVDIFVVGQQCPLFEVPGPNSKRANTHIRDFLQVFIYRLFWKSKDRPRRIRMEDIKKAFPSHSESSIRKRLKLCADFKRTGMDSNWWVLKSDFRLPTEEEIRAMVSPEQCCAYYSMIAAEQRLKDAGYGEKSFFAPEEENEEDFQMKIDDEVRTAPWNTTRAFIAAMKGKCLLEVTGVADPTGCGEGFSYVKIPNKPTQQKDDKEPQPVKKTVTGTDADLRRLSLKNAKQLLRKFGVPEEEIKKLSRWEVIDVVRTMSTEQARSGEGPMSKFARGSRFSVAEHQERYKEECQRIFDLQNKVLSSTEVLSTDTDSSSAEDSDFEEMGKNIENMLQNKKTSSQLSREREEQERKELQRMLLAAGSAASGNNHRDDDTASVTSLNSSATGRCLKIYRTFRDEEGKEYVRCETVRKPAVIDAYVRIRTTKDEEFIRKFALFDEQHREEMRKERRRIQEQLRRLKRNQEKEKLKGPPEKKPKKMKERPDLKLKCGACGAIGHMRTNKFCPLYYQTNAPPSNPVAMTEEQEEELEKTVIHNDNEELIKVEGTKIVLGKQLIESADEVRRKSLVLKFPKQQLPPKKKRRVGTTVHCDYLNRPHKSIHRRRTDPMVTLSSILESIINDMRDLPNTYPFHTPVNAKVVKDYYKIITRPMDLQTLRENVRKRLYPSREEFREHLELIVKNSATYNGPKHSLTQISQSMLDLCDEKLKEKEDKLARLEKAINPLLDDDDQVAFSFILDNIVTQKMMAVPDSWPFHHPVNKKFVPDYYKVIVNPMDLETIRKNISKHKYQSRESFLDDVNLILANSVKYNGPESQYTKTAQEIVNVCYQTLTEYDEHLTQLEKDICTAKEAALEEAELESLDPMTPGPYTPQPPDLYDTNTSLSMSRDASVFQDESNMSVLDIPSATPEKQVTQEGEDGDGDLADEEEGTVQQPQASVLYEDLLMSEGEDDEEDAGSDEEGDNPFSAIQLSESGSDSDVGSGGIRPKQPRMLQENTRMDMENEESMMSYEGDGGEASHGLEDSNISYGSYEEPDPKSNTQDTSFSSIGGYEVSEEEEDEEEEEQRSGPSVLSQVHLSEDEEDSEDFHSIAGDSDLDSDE

[18] = molecular target: Bromodomain-containing protein 1 (Homo sapiens) (UniProt O95696); conditions: Compound concentration 10.0 uM, Protein concentration 2.0 uM
[19] = molecular target: Transcription intermediary factor 1-alpha (Homo sapiens) (UniProt O15164); conditions: Compound concentration 10.0 uM, Protein concentration 2.0 uM
[20] = molecular target: Histone-lysine N-methyltransferase ASH1L (Homo sapiens) (UniProt Q9NR48); conditions: Compound concentration 10.0 uM, Protein concentration 2.0 uM
[21] = molecular target: Nuclear body protein SP140 (Homo sapiens) (UniProt Q13342); conditions: Compound concentration 10.0 uM, Protein concentration 2.0 uM
[22] = molecular target: Histone acetyltransferase p300 (Homo sapiens) (UniProt Q09472); test: Thermal Shift Assay. Domain start/stop: A1040-S1171; conditions: Compound concentration 10.0 uM, Protein concentration 2.0 uM
[23] = molecular target: Bromodomain adjacent to zinc finger domain protein 2A (Homo sapiens) (UniProt Q9UIF9); conditions: Compound concentration 10.0 uM, Protein concentration 2.0 uM
[24] = molecular target: Histone acetyltransferase p300 (Homo sapiens) (UniProt Q09472); conditions: Compound concentration 10.0 uM, Protein concentration 2.0 uM
[25] = molecular target: PH-interacting protein (Homo sapiens) (UniProt Q8WWQ0); conditions: Compound concentration 50.0 uM, Protein concentration 0.025 uM
[26] = molecular target: Protein polybromo-1 (Homo sapiens) (UniProt Q86U86); conditions: Compound concentration 10.0 uM, Protein concentration 2.0 uM; remark: listed apart in the source
[27] = molecular target: Transcription initiation factor TFIID subunit 1-like (Homo sapiens) (UniProt Q8IZX4); conditions: Compound concentration 10.0 uM, Protein concentration 2.0 uM
[28] = molecular target: Bromodomain-containing protein 2 (Homo sapiens) (UniProt P25440); conditions: Compound concentration 10.0 uM, Protein concentration 2.0 uM; remark: listed apart in the source
[29] = molecular target: Bromodomain testis-specific protein (Homo sapiens) (UniProt Q58F21); conditions: Compound concentration 10.0 uM, Protein concentration 2.0 uM; remark: listed apart in the source
Peregrin (Homo sapiens) [30] = molecular target: Peregrin (Homo sapiens) (UniProt P55201); conditions: Compound concentration 10.0 uM, Protein concentration 2.0 uM
[31] = molecular target: Protein polybromo-1 (Homo sapiens) (UniProt Q86U86); conditions: Compound concentration 10.0 uM, Protein concentration 2.0 uM; remark: listed apart in the source
[32] = molecular target: T1, Bromodomain-containing protein 4; test: Alphascreen assay. Binding to BRD4A (domain start/stop: N44-E168) by alphascreen assay
[33] = molecular target: Bromodomain and PHD finger-containing protein 3 (Homo sapiens) (UniProt Q9ULD4); conditions: Compound concentration 10.0 uM, Protein concentration 2.0 uM
Peregrin (Homo sapiens) [34] = molecular target: Peregrin (Homo sapiens) (UniProt P55201); conditions: Compound concentration 10.0 uM, Protein concentration 2.0 uM; remark: listed apart in the source
[35] = molecular target: Histone acetyltransferase KAT2B (Homo sapiens) (UniProt Q92831); conditions: Compound concentration 10.0 uM, Protein concentration 2.0 uM
[36] = molecular target: Nuclear body protein SP140-like protein (Homo sapiens) (UniProt Q9H930); conditions: Compound concentration 10.0 uM, Protein concentration 2.0 uM
[37] = molecular target: Transcription intermediary factor 1-beta (Homo sapiens) (UniProt Q13263); conditions: Compound concentration 10.0 uM, Protein concentration 2.0 uM
[38] = molecular target: Transcription initiation factor TFIID subunit 1-like (Homo sapiens) (UniProt Q8IZX4); conditions: Compound concentration 10.0 uM, Protein concentration 2.0 uM; remark: listed apart in the source
[39] = molecular target: Tripartite motif-containing protein 66 (Homo sapiens) (UniProt O15016); test: Thermal Shift Assay. Domain start/stop: M1091-S1218; conditions: Compound concentration 10.0 uM, Protein concentration 2.0 uM
[40] = molecular target: Bromodomain adjacent to zinc finger domain protein 2B (Homo sapiens) (UniProt Q9UIF8); test: Alphascreen assay. Domain start/stop: S1858-S1972; conditions: Compound concentration 25.0 uM, Protein concentration 25.0 uM
[41] = molecular target: Bromodomain adjacent to zinc finger domain protein 1A (Homo sapiens) (UniProt Q9NRL2); conditions: Compound concentration 10.0 uM, Protein concentration 2.0 uM
[42] = molecular target: SWI/SNF-related matrix-associated actin-dependent regulator of chromatin subfamily A member 4 (Homo sapiens) (UniProt P51532); conditions: Compound concentration 10.0 uM, Protein concentration 2.0 uM
[43] = molecular target: SWI/SNF-related matrix-associated actin-dependent regulator of chromatin subfamily A member 2 (Homo sapiens) (UniProt P51531); conditions: Compound concentration 10.0 uM, Protein concentration 2.0 uM
[44] = molecular target: Bromodomain adjacent to zinc finger domain protein 2B (Homo sapiens) (UniProt Q9UIF8); conditions: Compound concentration 10.0 uM, Protein concentration 2.0 uM
[45] = molecular target: Bromodomain and WD repeat-containing protein 1 (Homo sapiens) (UniProt Q9NSI6); conditions: Compound concentration 10.0 uM, Protein concentration 2.0 uM
[46] = molecular target: Nucleosome-remodeling factor subunit BPTF (Homo sapiens) (UniProt Q12830); conditions: Compound concentration 10.0 uM, Protein concentration 2.0 uM
[47] = molecular target: Chromatin remodeling regulator CECR2 (Homo sapiens) (UniProt Q9BXF3); conditions: Compound concentration 20.0 uM, Protein concentration 12.5 uM
[48] = molecular target: Bromodomain-containing protein 3 (Homo sapiens) (UniProt Q15059); conditions: Compound concentration 10.0 uM, Protein concentration 2.0 uM
[49] = molecular target: Bromodomain-containing protein 3 (Homo sapiens) (UniProt Q15059); test: Thermal Shift Assay. Domain start/stop: P24-E144; conditions: Compound concentration 10.0 uM, Protein concentration 2.0 uM
[50] = molecular target: Transcription initiation factor TFIID subunit 1 (Homo sapiens) (UniProt P21675); conditions: Compound concentration 10.0 uM, Protein concentration 2.0 uM; remark: listed apart in the source

- ΔTm [1]: 0.57 °C
- ΔTm [2]: 0.46 °C
- ΔTm [3]: 0.56 °C
- ΔTm [4]: 0.66 °C
- ΔTm [5]: 0.18 °C and 1.55 °C
- ΔTm [6]: 0.03 °C
- ΔTm [7]: 0.17 °C
- ΔTm [8]: -2.5 °C
- ΔTm [9]: 1.41 °C
- inhibition [10]: 24.4%
- ΔTm [11]: 10.2 °C and 9.55 °C
- ΔTm [12]: 0.45 °C
- ΔTm [13]: 0.23 °C
- ΔTm [14]: 0.46 °C and -0.03 °C
- ΔTm [15]: 0.97 °C
- ΔTm [16]: -0.12 °C and -0.5 °C
- ΔTm [17]: 0.26 °C and 0.07 °C
- ΔTm [18]: 0.43 °C and 0.36 °C
- ΔTm [19]: 0.67 °C
- ΔTm [20]: -0.29 °C
- ΔTm [21]: 0.37 °C
- ΔTm [22]: 9.68 °C
- ΔTm [23]: -0.18 °C
- ΔTm [24]: 10.2 °C
- inhibition [25]: 35.5% and 42.4%
- ΔTm [26]: 0.12 °C
- ΔTm [27]: 1.11 °C
- ΔTm [28]: 0.99 °C
- ΔTm [29]: 0.37 °C
- ΔTm (Peregrin (Homo sapiens) [30]): 1.46 °C
- ΔTm [31]: 0.23 °C
- pIC50 [32]: 4.56 and 5.15
- ΔTm [33]: 0.46 °C
- ΔTm (Peregrin (Homo sapiens) [34]): 0.42 °C
- ΔTm [35]: 0.46 °C
- ΔTm [36]: 0.17 °C
- ΔTm [37]: 0.49 °C and -0.34 °C
- ΔTm [38]: -0.06 °C
- ΔTm [39]: 0.82 °C
- inhibition [40]: 24%
- ΔTm [41]: -0.45 °C
- ΔTm [42]: 0.34 °C
- ΔTm [43]: 0.06 °C
- ΔTm [44]: 0.17 °C
- ΔTm [45]: 0.96 °C
- ΔTm [46]: 0.21 °C and -1.05 °C
- inhibition [47]: 58.8%
- ΔTm [48]: 1.25 °C
- ΔTm [49]: 1.83 °C
- ΔTm [50]: -0.12 °C
SMILES: COc1ccc(CCc2nc3cc(-c4c(C)noc4C)ccc3n2C[C@H](C)N2CCOCC2)cc1Cl
